The results in this text go back to ChEMBL document CHEMBL6074678, “Selectively Antagonizing the NOD1-Mediated Inflammatory Signaling Pathway Mitigates the Gastric Inflammation Induced by Helicobacter pylori Infection” (J Med Chem, 2024).

In test [1] the target is T1, Nucleotide-binding oligomerization domain-containing protein 2 (Mus musculus) (UniProt Q8K3Z0).
T1 sequence (whole entry): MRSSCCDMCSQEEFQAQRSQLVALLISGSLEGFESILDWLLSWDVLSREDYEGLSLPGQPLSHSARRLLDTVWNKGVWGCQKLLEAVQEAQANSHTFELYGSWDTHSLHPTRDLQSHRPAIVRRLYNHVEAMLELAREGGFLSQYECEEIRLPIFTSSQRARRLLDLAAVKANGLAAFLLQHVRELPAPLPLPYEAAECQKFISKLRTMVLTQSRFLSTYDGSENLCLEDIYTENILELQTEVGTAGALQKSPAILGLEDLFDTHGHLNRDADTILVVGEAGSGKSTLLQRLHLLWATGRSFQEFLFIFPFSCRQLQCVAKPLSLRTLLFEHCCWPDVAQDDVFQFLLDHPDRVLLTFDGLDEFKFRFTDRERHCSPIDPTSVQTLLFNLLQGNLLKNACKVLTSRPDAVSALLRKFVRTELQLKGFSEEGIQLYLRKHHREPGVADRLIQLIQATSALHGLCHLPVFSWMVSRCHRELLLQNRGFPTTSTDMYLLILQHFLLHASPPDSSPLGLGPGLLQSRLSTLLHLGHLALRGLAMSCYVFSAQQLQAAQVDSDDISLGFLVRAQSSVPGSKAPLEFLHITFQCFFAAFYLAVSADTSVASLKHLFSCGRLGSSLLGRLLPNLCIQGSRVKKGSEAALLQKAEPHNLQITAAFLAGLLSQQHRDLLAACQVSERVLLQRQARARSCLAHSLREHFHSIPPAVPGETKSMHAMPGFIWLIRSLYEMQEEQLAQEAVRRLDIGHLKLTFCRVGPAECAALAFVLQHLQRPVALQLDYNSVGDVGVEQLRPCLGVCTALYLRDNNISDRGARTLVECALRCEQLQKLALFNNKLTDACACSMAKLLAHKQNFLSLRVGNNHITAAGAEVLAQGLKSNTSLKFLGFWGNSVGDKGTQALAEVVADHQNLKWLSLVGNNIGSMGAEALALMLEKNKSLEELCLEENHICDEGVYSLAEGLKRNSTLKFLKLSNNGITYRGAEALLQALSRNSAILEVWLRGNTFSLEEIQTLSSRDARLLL
As to the kind of experiment: Inhibition of mouse NOD2 at 1 uM relative to control.

Test [2] deals with T2, Nucleotide-binding oligomerization domain-containing protein 1 (Mus musculus) (UniProt Q8BHB0).
T2 sequence (whole entry): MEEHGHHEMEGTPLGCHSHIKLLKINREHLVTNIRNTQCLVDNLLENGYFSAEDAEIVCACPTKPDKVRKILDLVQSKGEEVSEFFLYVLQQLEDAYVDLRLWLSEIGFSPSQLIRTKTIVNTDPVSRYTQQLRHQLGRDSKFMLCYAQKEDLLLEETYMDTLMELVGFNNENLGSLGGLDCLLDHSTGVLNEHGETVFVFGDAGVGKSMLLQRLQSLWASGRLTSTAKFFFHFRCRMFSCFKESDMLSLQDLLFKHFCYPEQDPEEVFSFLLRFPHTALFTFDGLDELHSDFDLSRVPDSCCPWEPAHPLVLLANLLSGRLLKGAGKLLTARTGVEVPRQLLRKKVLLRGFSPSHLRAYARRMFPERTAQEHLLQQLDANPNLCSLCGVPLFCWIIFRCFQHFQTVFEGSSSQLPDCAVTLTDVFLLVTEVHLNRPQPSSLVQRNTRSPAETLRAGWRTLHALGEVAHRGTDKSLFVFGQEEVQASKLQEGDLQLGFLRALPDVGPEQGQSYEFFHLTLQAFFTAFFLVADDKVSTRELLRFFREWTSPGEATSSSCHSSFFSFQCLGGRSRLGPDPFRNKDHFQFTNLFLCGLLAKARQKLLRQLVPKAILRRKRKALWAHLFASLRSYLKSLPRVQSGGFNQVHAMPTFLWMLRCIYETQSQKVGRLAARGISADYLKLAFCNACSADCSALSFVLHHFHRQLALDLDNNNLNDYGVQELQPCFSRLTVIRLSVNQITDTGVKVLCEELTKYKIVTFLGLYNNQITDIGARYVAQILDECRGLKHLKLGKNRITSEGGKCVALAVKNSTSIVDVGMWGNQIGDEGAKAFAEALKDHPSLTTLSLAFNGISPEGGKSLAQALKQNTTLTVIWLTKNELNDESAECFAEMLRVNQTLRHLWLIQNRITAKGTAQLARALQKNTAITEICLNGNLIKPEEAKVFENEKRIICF
As to the kind of experiment: Antagonist activity at mouse NOD1 expressed in HEK-Blue cells assessed as decrease in SEAP secretion at 1 uM incubated for 3 hrs followed by C12-iE-DAP stimulation for 20 hrs by spectrophotometry relative to control. The test is classed as cell-based. The conditions noted are these: HEK-Blue mNOD1, filed as antagonist, time 23.0 hrs.

The target of test [3] is T3, Toll-like receptor 9 (Homo sapiens) (UniProt Q9NR96).
T3 sequence (whole entry): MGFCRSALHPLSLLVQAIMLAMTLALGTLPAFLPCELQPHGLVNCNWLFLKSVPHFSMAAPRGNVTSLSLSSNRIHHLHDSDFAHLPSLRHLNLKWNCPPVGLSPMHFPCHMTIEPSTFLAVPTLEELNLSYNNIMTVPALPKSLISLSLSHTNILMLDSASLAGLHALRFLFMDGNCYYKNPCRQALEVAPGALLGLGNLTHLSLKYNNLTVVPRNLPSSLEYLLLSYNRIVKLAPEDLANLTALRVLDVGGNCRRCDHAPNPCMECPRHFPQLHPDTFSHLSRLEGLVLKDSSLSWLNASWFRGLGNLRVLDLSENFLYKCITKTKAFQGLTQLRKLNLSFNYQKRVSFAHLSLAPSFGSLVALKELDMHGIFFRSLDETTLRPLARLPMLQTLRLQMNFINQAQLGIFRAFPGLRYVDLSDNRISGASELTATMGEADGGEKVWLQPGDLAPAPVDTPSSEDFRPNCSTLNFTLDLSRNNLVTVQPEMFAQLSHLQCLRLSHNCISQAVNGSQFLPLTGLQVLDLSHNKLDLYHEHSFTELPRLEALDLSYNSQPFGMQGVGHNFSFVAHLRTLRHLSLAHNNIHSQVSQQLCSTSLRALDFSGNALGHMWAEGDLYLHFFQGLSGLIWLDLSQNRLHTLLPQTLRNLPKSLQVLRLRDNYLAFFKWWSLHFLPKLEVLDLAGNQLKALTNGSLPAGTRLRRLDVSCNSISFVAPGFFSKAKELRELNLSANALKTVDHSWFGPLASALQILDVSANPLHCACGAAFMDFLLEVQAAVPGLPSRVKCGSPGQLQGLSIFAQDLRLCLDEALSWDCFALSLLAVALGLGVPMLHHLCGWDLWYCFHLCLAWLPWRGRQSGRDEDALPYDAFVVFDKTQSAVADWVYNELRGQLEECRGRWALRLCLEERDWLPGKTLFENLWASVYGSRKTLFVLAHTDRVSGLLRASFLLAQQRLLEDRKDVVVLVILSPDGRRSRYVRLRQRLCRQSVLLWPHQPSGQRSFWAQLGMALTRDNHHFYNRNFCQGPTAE
As to the kind of experiment: Inhibition of human TLR9 at 1 uM relative to control.

As to `CS(=O)(=O)c1ccc2nc(Cl)n(-c3ccc(Cl)c(NS(=O)(=O)c4c(F)cccc4F)c3)c(=O)c2c1`, the inhibition (as a rule, the relative decrease from the control value, in per cent) is 21.9% in test [1], 80.8% in test [2] and 37.1% in test [3].

On to `N#Cc1ccc2nc(Cl)n(-c3ccc(Cl)c(NS(=O)(=O)c4c(F)cccc4F)c3)c(=O)c2c1`, for which the inhibition in test [1] is 20.2%; in test [2] it was 73.6%; in test [3] it was 37.6%.

For `CS(=O)(=O)c1ccc2nc(Cl)n(-c3ccc(Cl)c(NS(=O)(=O)c4ccc5ncsc5c4)c3)c(=O)c2c1`, the inhibition in test [1] was under 10%; in test [2], 87.2%; in test [3], 73.9%.
